In PubChem BioAssay AID330 (DTP/NCI, 2004):
“And” between values parts separate entries of the source, which are not always exact repeats. Equal values may be shown once. Toxic doses and inconclusive results are not listed.

Tested on: P388 leukemia ip, CD2F1 mice, survival T/C
Experiment: NCI In Vivo Anticancer Drug Screen. Data for tumor model P388 Leukemia (intraperitoneal) in CD2F1 (CDF1) mice
Details: endpoint: median survival time, higher = longer survival
Procedure, shortened: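 Mice carrying the transplanted tumor received test compound or vehicle. Survival was recorded in each group, and the value is the treated-group measurement divided by that of the vehicle-treated control group.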

[1] = dose: 100.0 mg/kg/injection, schedule: Q01DX001 (ip), vehicle: saline with Tween-80
[2] = dose: 200.0 mg/kg/injection, schedule: Q01DX001 (ip), vehicle: saline with Tween-80
[3] = dose: 400.0 mg/kg/injection, schedule: Q01DX001 (ip), vehicle: saline with Tween-80
[4] = dose: 50.0 mg/kg/injection, schedule: Q01DX009 (ip), vehicle: saline with Tween-80
[5] = dose: 100.0 mg/kg/injection, schedule: Q01DX009 (ip), vehicle: saline with Tween-80
[6] = dose: 200.0 mg/kg/injection, schedule: Q01DX009 (ip), vehicle: saline with Tween-80
[7] = dose: 100.0 mg/kg/injection, schedule: Q01DX001 (ip), vehicle: Klucel (hydroxypropylcellulose) (HPC)
[8] = dose: 200.0 mg/kg/injection, schedule: Q01DX001 (ip), vehicle: Klucel (hydroxypropylcellulose) (HPC)
[9] = dose: 400.0 mg/kg/injection, schedule: Q01DX001 (ip), vehicle: Klucel (hydroxypropylcellulose) (HPC)
[10] = dose: 25.0 mg/kg/injection, schedule: Q01DX009 (ip), vehicle: saline with Tween-80
[11] = dose: 50.0 mg/kg/injection, schedule: Q01DX005 (ip), vehicle: saline with Tween-80
[12] = dose: 100.0 mg/kg/injection, schedule: Q01DX005 (ip), vehicle: saline with Tween-80

Compound: N#CCc1nc2ncc(Br)cc2[nH]1
- T/C [1]: 100 % of control
- T/C [2]: 104 % of control
- T/C [3]: 100 % of control

Compound: Brc1cnc2nc(-c3cccc4ccccc34)[nH]c2c1
- T/C [1]: 96 % of control
- T/C [2]: 94 % of control
- T/C [3]: 91 % of control

Compound: CC12C(=O)OC(=O)C1(C)C1CCC2O1 (stereo unspecified)
- T/C (dose: 0.93 mg/kg/injection, schedule: Q01DX005 (ip), vehicle: saline with Tween-80): 109 % of control
- T/C (dose: 1.87 mg/kg/injection, schedule: Q01DX005 (ip), vehicle: saline with Tween-80): 102 % of control

Compound: CCOC(=O)C(CNc1ccc(OCc2ccccc2)cc1)NC(=O)c1ccccc1 (stereo unspecified)
- T/C [4]: 105 % of control
- T/C (dose: 50.0 mg/kg/injection, schedule: Q01DX009 (ip), vehicle: saline): 96 % of control
- T/C [5]: 100 % of control
- T/C (dose: 100.0 mg/kg/injection, schedule: Q01DX009 (ip), vehicle: saline): 88 % of control
- T/C [6]: 87 % of control
- T/C (dose: 200.0 mg/kg/injection, schedule: Q01DX009 (ip), vehicle: saline): 88 % of control
- T/C (dose: 400.0 mg/kg/injection, schedule: Q01DX009 (ip), vehicle: saline with Tween-80): 91 % of control

Compound: O=C(Nc1ccc(C2=NCCCN2)cc1)c1ccc(C(=O)Nc2ccc(C3=NCCCN3)cc2)cc1
- T/C (dose: 1.25 mg/kg/injection, schedule: Q04DX003 (ip), vehicle: saline with Tween-80): 100 % of control
- T/C (dose: 2.5 mg/kg/injection, schedule: Q04DX003 (ip), vehicle: saline with Tween-80): 113 % of control
- T/C (dose: 5.0 mg/kg/injection, schedule: Q01DX009 (ip), vehicle: saline): 300 % of control
- T/C (dose: 10.8 mg/kg/injection, schedule: Q04DX003 (ip), vehicle: Klucel (hydroxypropylcellulose) (HPC)): 151 % of control
- T/C (dose: 12.0 mg/kg/injection, schedule: Q04DX003 (ip), vehicle: Klucel (hydroxypropylcellulose) (HPC)): 151 % of control
- T/C (dose: 18.0 mg/kg/injection, schedule: Q04DX003 (ip), vehicle: Klucel (hydroxypropylcellulose) (HPC)): 165 % of control and 186 % of control and 198 % of control
- T/C (dose: 20.0 mg/kg/injection, schedule: Q01DX009 (ip), vehicle: saline): 100 % of control
- T/C (dose: 20.0 mg/kg/injection, schedule: Q04DX003 (ip), vehicle: Klucel (hydroxypropylcellulose) (HPC)): 185 % of control
- T/C (dose: 20.0 mg/kg/injection, schedule: Q04DX003 (ip), vehicle: saline with Tween-80): 204 % of control
- T/C (dose: 30.0 mg/kg/injection, schedule: Q04DX003 (ip), vehicle: Klucel (hydroxypropylcellulose) (HPC)): 201 % of control
- T/C (dose: 33.3 mg/kg/injection, schedule: Q04DX003 (ip), vehicle: Klucel (hydroxypropylcellulose) (HPC)): 250 % of control
- T/C (dose: 50.0 mg/kg/injection, schedule: Q04DX003 (ip), vehicle: Klucel (hydroxypropylcellulose) (HPC)): 91 % of control

Compound: CC(=O)OCC12CCC(C)=CC1OC1C(=O)CC2(C)C12CO2 (stereo unspecified)
- T/C (dose: 0.5 mg/kg/injection, schedule: Q01DX009 (ip), vehicle: saline): 100 % of control
- T/C (dose: 1.0 mg/kg/injection, schedule: Q01DX009 (ip), vehicle: saline): 101 % of control
- T/C (dose: 2.0 mg/kg/injection, schedule: Q01DX009 (ip), vehicle: saline): 94 % of control
- T/C (dose: 4.0 mg/kg/injection, schedule: Q01DX009 (ip), vehicle: saline): 110 % of control

Compound: O=C(Cc1nc2ccccc2[nH]1)N/N=C1\SCC(=O)N1C1CCCCC1
- T/C [7]: 98 % of control
- T/C [8]: 100 % of control
- T/C [9]: 99 % of control

Compound: CC(C)(C)/C(=N\Nc1ccc([N+](=O)[O-])cc1[N+](=O)[O-])c1ccccc1
- T/C (dose: 3.13 mg/kg/injection, schedule: Q01DX001 (ip), vehicle: saline with Tween-80): 91 % of control
- T/C (dose: 6.25 mg/kg/injection, schedule: Q01DX001 (ip), vehicle: saline with Tween-80): 116 % of control
- T/C (dose: 12.5 mg/kg/injection, schedule: Q01DX001 (ip), vehicle: saline with Tween-80): 95 % of control

Compound: O=[N+]([O-])c1ccc(-c2nc(/C=N/N3CCSCC3)cs2)s1
- T/C [10]: 100 % of control
- T/C [4]: 95 % of control
- T/C [5]: 95 % of control

Compound: c1ccc(CC2NCCc3c2[nH]c2ccccc32)cc1 (stereo unspecified)
- T/C [11]: 100 % of control
- T/C [12]: 99 % of control
- T/C (dose: 200.0 mg/kg/injection, schedule: Q01DX005 (ip), vehicle: saline with Tween-80): 94 % of control

Compound: CCn1nnnc1-c1ccccc1
- T/C [7]: 91 % of control
- T/C [8]: 88 % of control
- T/C [9]: 91 % of control

Compound: COc1ccc2c(c1O)C13CC=NC(C2)C1C(C)(C)C(C)(C)C(=O)C3 (stereo unspecified)
- T/C (dose: 12.5 mg/kg/injection, schedule: Q01DX005 (ip), vehicle: saline with Tween-80): 100 % of control
- T/C (dose: 25.0 mg/kg/injection, schedule: Q01DX005 (ip), vehicle: saline with Tween-80): 101 % of control
- T/C [11]: 100 % of control and 97 % of control

Compound: CCC1(c2ccccc2)OCC(C2CCCCN2)O1 (stereo unspecified)
- T/C (dose: 50.0 mg/kg/injection, schedule: Q01DX009 (ip), vehicle: Klucel (hydroxypropylcellulose) (HPC)): 95 % of control
- T/C (dose: 100.0 mg/kg/injection, schedule: Q01DX009 (ip), vehicle: Klucel (hydroxypropylcellulose) (HPC)): 95 % of control

Compound: COc1cc(CN2CCN(CCO)CC2)c(O)c(CN2CCN(CCO)CC2)c1
- T/C (dose: 60.0 mg/kg/injection, schedule: Q01DX005 (ip), vehicle: saline): 108 % of control
- T/C (dose: 120.0 mg/kg/injection, schedule: Q01DX005 (ip), vehicle: saline): 108 % of control
- T/C (dose: 240.0 mg/kg/injection, schedule: Q01DX005 (ip), vehicle: saline): 102 % of control

Compound: CC(=O)O[C@]12C=C[C@H](O1)[C@@H]1C(=O)NC(=O)[C@@H]12
- T/C (dose: 6.25 mg/kg/injection, schedule: Q04DX002 (ip), vehicle: saline): 98 % of control
- T/C (dose: 12.5 mg/kg/injection, schedule: Q04DX002 (ip), vehicle: saline): 106 % of control
- T/C (dose: 25.0 mg/kg/injection, schedule: Q04DX002 (ip), vehicle: saline): 88 % of control

Compound: Cc1cccc(C(=O)CC[N+](C)(C)C)c1
- T/C (dose: 3.13 mg/kg/injection, schedule: Q01DX009 (ip), vehicle: saline): 111 % of control
- T/C (dose: 6.25 mg/kg/injection, schedule: Q01DX009 (ip), vehicle: saline): 109 % of control
- T/C (dose: 12.5 mg/kg/injection, schedule: Q01DX009 (ip), vehicle: saline): 94 % of control

Compound: CCCCCC(CN(C)C)C(=O)CC(SCC)c1ccccc1 (stereo unspecified)
- T/C (dose: 12.5 mg/kg/injection, schedule: Q01DX009 (ip), vehicle: water): 111 % of control
- T/C (dose: 25.0 mg/kg/injection, schedule: Q01DX009 (ip), vehicle: water): 100 % of control

Compound: CC(C)CCCCC(O)C1C(=O)OCC1CO (stereo unspecified)
- T/C (dose: 7.25 mg/kg/injection, schedule: Q01DX005 (ip), vehicle: distilled water + alcohol): 101 % of control
- T/C (dose: 14.5 mg/kg/injection, schedule: Q01DX005 (ip), vehicle: distilled water + alcohol): 104 % of control
- T/C (dose: 29.0 mg/kg/injection, schedule: Q01DX005 (ip), vehicle: distilled water + alcohol): 111 % of control
- T/C (dose: 58.0 mg/kg/injection, schedule: Q01DX005 (ip), vehicle: distilled water + alcohol): 105 % of control

Compound: COC1/C=C/OC2(C)Oc3c(C)c(O)c4c(O)c(c(/C=N/N(C)C5OC(COC(=O)c6ccccc6)C(OC(=O)c6ccccc6)C5OC(=O)c5ccccc5)c(O)c4c3C2=O)NC(=O)C(C)=C/C=C/C(C)C(O)C(C)C(O)C(C)C(OC(C)=O)C1C (stereo unspecified)
- T/C (dose: 12.5 mg/kg/injection, schedule: Q01DX009 (ip), vehicle: saline with Tween-80): 104 % of control
- T/C [10]: 107 % of control
- T/C [4]: 108 % of control and 112 % of control
- T/C [5]: 114 % of control
- T/C [6]: 117 % of control

Compound: CN(C)CCC(OC(=O)C(c1ccccc1)c1ccccc1)c1ccccc1 (stereo unspecified)
- T/C [11]: 101 % of control
- T/C [12]: 103 % of control

Compound: CCCCCCOC(=O)c1ccc(I)cc1
- T/C [4]: 97 % of control
- T/C [5]: 93 % of control
- T/C [6]: 100 % of control

Compound: [Cl][Pt+2][Cl].[NH-]c1ccc([N+](=O)[O-])cc1[NH-]
- T/C (dose: 3.12 mg/kg/injection, schedule: Q04DX002 (ip), vehicle: saline with Tween-80): 100 % of control
- T/C (dose: 6.25 mg/kg/injection, schedule: Q04DX002 (ip), vehicle: saline with Tween-80): 110 % of control and 113 % of control
- T/C (dose: 12.5 mg/kg/injection, schedule: Q04DX002 (ip), vehicle: saline with Tween-80): 115 % of control and 118 % of control
- T/C (dose: 25.0 mg/kg/injection, schedule: Q04DX002 (ip), vehicle: saline with Tween-80): 123 % of control
- T/C (dose: 50.0 mg/kg/injection, schedule: Q04DX002 (ip), vehicle: saline with Tween-80): 117 % of control
